Reference: the supplement of paper PMC11424490

Columns and labels:
[1] = tested on: NCI-H2122; test: fitted bottom plateau of viability curve, % of DMSO control; higher = less maximal inhibition; extreme values may be limits of the assay
In short: (§1)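 NCI-H2122 (800 cells/well), SW837 and NCI-H358 (500 cells/well) were seeded in 60 µl in 384-well plates. After 24 h, single compounds were dispensed acoustically in dose series and incubated 72 h (NCI-H2122, NCI-H358) or 144 h (SW837). Viability was read by CellTiter-Glo luminescence (15 min shaking, EnVision reader) and normalised to DMSO controls (percent of control). Relative IC50 (averaged over replicates) and the lower plateau come from a four-parameter nonlinear fit.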

[2] = tested on: NCI-H358; test: as above
In short: as §1

[3] = tested on: SW837; test: as above
In short: as §1

[4] = tested on: NCI-H2122; test: combination cScore with sotorasib (Bliss gap around IC50) (%PoC); higher = stronger additive effect
In short: (§2)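 Scores represent the average Bliss-independence gap, expected minus measured viability, in a field surrounding both monotherapy IC50s, with the top concentrations used when no IC50 was reached. Cells (NCI-H2122, NCI-H358, SW837) were seeded at 500 or 800 per well in 384-well plates, dosed in matrices at 24 h and grown for 72 h, with SW837 grown for 144 h. Viability was measured by CellTiter-Glo, normalised to vehicle wells and fitted with four-parameter curves.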

[5] = tested on: NCI-H358; test: as above
In short: as §2

[6] = tested on: SW837; test: as above
In short: as §2

[7] = tested on: NCI-H2122; test: relative IC50 of cell viability (CellTiter-Glo); higher = less potent
Description: (§3)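 CellTiter-Glo proliferation assay in KRAS G12C mutant NCI-H2122 (72 h), SW837 (144 h) and NCI-H358 cells in 384-well plates. Monotherapy dose response was fitted with a four-parameter curve after normalisation to DMSO controls (% of control, PoC). IC50 is the relative IC50, averaged over replicates. Bottom is the fitted lower plateau in %PoC; Max.Conc. is the top dose tested.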

[8] = tested on: SW837; test: as above
Description: as §3

| SMILES | fitted bottom plateau of viability curve [1] [%] | fitted bottom plateau of viability curve [2] [%] | fitted bottom plateau of viability curve [3] [%] | combination cScore with sotorasib [4] | combination cScore with sotorasib [5] | combination cScore with sotorasib [6] | relative IC50 of cell viability [7] [nM] | relative IC50 of cell viability [8] [nM] |
| --- | --- | --- | --- | --- | --- | --- | --- | --- |
| Cc1c(Cn2c(C)nc3c(C(=O)O)cc(N4CCOCC4)cc32)cccc1C(F)(F)F (top concentration tested 9999.9 nM) | 70.8 | 93.8 | 98.7 |  |  |  |  |  |
| O=C(C1CC1)N1CC[C@@H](Cn2c(-c3ccc(-c4ccc5occc5c4)cc3)nc3cnccc32)C1 (top concentration tested 9999.9 nM) | 75.1 | 96.6 | 91.7 |  |  |  |  |  |
| O=c1cc(-c2cccc3c2Sc2ccccc2S3)oc(N2CCOCC2)c1 (top concentration tested 9999.9 nM) | 70.7 | 76.8 | 101 |  |  |  |  |  |
| CC(C)N(CCCNC(=O)Nc1ccc(C(C)(C)C)cc1)C[C@H]1O[C@@H](n2ccc3c(N)ncnc32)[C@H](O)[C@@H]1O (top concentration tested 50000 nM) | 67.3 | 81.5 | 93.4 |  |  |  |  |  |
| CNS(=O)(=O)Nc1nccc(Cc2c(C)c3ccc(Oc4ncccn4)cc3oc2=O)c1F + C=CC(=O)N1CCN(c2nc(=O)n(-c3c(C)ccnc3C(C)C)c3nc(-c4c(O)cccc4F)c(F)cc23)[C@@H](C)C1 [sotorasib] |  |  |  | 8.14 | 4.31 | 5.63 |  |  |
| COc1ncc(-c2ccc3nccc(-c4ccnnc4)c3c2)cc1NS(=O)(=O)c1ccc(F)cc1F + C=CC(=O)N1CCN(c2nc(=O)n(-c3c(C)ccnc3C(C)C)c3nc(-c4c(O)cccc4F)c(F)cc23)[C@@H](C)C1 [sotorasib] |  |  |  | 20.8 | 5.96 | 8.72 |  |  |
| C[C@@H]1CN(CC(=O)Nc2ccc3c(c2)Cc2cccc(-c4cc(=O)cc(N5CCOCC5)o4)c2S3)C[C@H](C)O1 + C=CC(=O)N1CCN(c2nc(=O)n(-c3c(C)ccnc3C(C)C)c3nc(-c4c(O)cccc4F)c(F)cc23)[C@@H](C)C1 [sotorasib] |  |  |  | 17.1 | 5.09 | 9.38 |  |  |
| Cc1c(-c2c(-c3ccc(F)o3)sc3ncnc(O[C@H](Cc4ccccc4OCc4ccnn4CC(F)(F)F)C(=O)O)c23)ccc(OCCN2CCN(C)CC2)c1Cl + C=CC(=O)N1CCN(c2nc(=O)n(-c3c(C)ccnc3C(C)C)c3nc(-c4c(O)cccc4F)c(F)cc23)[C@@H](C)C1 [sotorasib] |  |  |  | 10.4 | 4.06 | 2.8 |  |  |
| Cc1cc(C)c(CNC(=O)c2cc(-c3ccc(N4CCNCC4)nc3)cc3c2c(C)cn3C2CCCC2)c(=O)[nH]1 + C=CC(=O)N1CCN(c2nc(=O)n(-c3c(C)ccnc3C(C)C)c3nc(-c4c(O)cccc4F)c(F)cc23)[C@@H](C)C1 [sotorasib] |  |  |  | 10.7 | 2.26 | 1.67 |  |  |
| Cc1nc(Nc2n[nH]c3c2CN(C(=O)N[C@H](CN(C)C)c2ccccc2)C3(C)C)c2sccc2n1 + C=CC(=O)N1CCN(c2nc(=O)n(-c3c(C)ccnc3C(C)C)c3nc(-c4c(O)cccc4F)c(F)cc23)[C@@H](C)C1 [sotorasib] |  |  |  | 17.5 | -0.36 | 4.19 |  |  |
| COc1cc2nc(C)nc(N[C@H](C)c3cc(N)cc(C(F)(F)F)c3)c2cc1O[C@H]1CCOC1 [BI-3406 (SOSi)] (top concentration tested 1000.1 nM) | 69.4 | 82 | 102 |  |  |  |  |  |
| CC[C@H](Nc1ncnc2[nH]cnc12)c1nc2cccc(F)c2c(=O)n1-c1ccccc1 [Cal-101] (top concentration tested 10000 nM) | 75.5 | 84.2 | 85.3 |  |  |  |  |  |
| O=P1(N(CCCl)CCCl)NCCCO1 (stereo not drawn) [Cyclophosphamide] (top concentration tested 10000 nM) | 88.9 | 99.7 | 87.3 |  |  |  |  |  |
| C[C@H](Nc1ncnc2nc[nH]c12)c1cc2cccc(Cl)c2c(=O)n1-c1ccccc1 [Duvelisib] (top concentration tested 9999.9 nM) | 56.5 | 61 | 94.1 |  |  |  |  |  |
| CCCc1cc(C)[nH]c(=O)c1CNC(=O)c1cc(-c2ccnc(N3CCN(C)CC3)c2)cc2c1cnn2C(C)C [GSK343] (top concentration tested 4999.9 nM) | 83.2 | 92.7 | 94.5 |  |  |  |  |  |
| C[C@H](NC(=O)c1c(N)nn2cccnc12)c1cc2cccc(C#Cc3cnn(C)c3)c2c(=O)n1-c1ccccc1 [IPI-549] (top concentration tested 1000 nM) | 86.2 | 91 | 91.6 |  |  |  |  |  |
| CS(=O)(=O)CCNCc1ccc(-c2ccc3ncnc(Nc4ccc(OCc5cccc(F)c5)c(Cl)c4)c3c2)o1 [Lapatinib] (top concentration tested 1000 nM) | 77.5 | 58.4 | 92.9 |  |  |  |  |  |
| O=C(c1cc(Cc2n[nH]c(=O)c3ccccc23)ccc1F)N1CCN(C(=O)C2CC2)CC1 [Olaparib] (top concentration tested 50000 nM) | 63.9 | 56.6 | 88.2 |  |  |  |  |  |
| O=C(/C=C/N1C[C@H]2C[C@@H]1CN2c1ccccn1)c1ccccc1O [PFI-3] (top concentration tested 50000 nM) | 94 | 93.4 | 98.3 |  |  |  |  |  |
| O=C(c1c(F)ccc(NS(=O)(=O)N2CC[C@@H](F)C2)c1F)c1c[nH]c2ncc(-c3cnc(C4CC4)nc3)cc12 [PLX8394] (top concentration tested 5000 nM) | 78.7 | 57.8 | 96.3 |  |  |  |  |  |
| CC1(N)CCN(c2cnc(-c3cccc(Cl)c3Cl)c(N)n2)CC1 [SHP099] (top concentration tested 1000.1 nM) | 84.1 | 88.2 | 97 |  |  |  |  |  |
| CC(C)(C)c1ccc(S(=O)(=O)NCc2ccc(C(=O)Nc3cccnc3)cc2)cc1 [STF-31] (top concentration tested 10000 nM) | 12.7 |  | 0 |  |  |  | 5790 | 6500 |
| CC/C(=C(\c1ccccc1)c1ccc(OCCN(C)C)cc1)c1ccccc1 [Tamoxifen] (top concentration tested 10000 nM) | 66 | 67.9 | 88.6 |  |  |  |  |  |
| CC(=O)Nc1cccc(-n2c(=O)n(C3CC3)c(=O)c3c(Nc4ccc(I)cc4F)n(C)c(=O)c(C)c32)c1 [Trametinib] (top concentration tested 1000 nM) | 3.01 |  | 11.6 |  |  |  | 21.7 | 33.4 |
| CNCc1ccc(-c2cc(-c3nc(-c4ccc(S(=O)(=O)C(C)C)cc4)cnc3N)on2)cc1 [VE-822/VX-970] (top concentration tested 9999.9 nM) | 0.375 |  | 2.47 |  |  |  | 278 | 807 |
| CC[C@]1(O)C[C@@H]2CN(CCc3c([nH]c4ccccc34)[C@@](C(=O)OC)(c3cc4c(cc3OC)N(C)[C@H]3[C@@](O)(C(=O)OC)[C@H](OC(C)=O)[C@]5(CC)C=CCN6CC[C@]43[C@@H]65)C2)C1 [Vinblastine] (top concentration tested 99.992 nM) | 4.54 |  | 0 |  |  |  | 4.34 | 80.2 |
| CCC1=C[C@@H]2CN(C1)Cc1c([nH]c3ccccc13)[C@@](C(=O)OC)(c1cc3c(cc1OC)N(C)[C@H]1[C@@](O)(C(=O)OC)[C@H](OC(C)=O)[C@]4(CC)C=CCN5CC[C@]31[C@@H]54)C2 [Vinorelbine] (top concentration tested 100.01 nM) | 5.21 |  | 42.9 |  |  |  | 9.06 | 17.1 |
| CN[C@H]1CN(c2ccc3c(=O)c(C(=O)O)cn(-c4nccs4)c3n2)C[C@@H]1OC [Vosaroxin] (top concentration tested 2500 nM) | 34.3 |  | 0 |  |  |  | 778 | 2310 |
| Oc1nc(-c2ccc(C(F)(F)F)cc2)nc2c1CSCC2 [XAV939] (top concentration tested 50000 nM) | 81.5 | 88.7 | 89.3 |  |  |  |  |  |
